Experimental data published in paper PMC4823954, “From fighting depression to conquering tumors: a novel tricyclic thiazepine compound as a tubulin polymerization inhibitor” (Cell Death & Disease, 2016).

Columns and labels:
Experiment in all cases: KINOMEscan
Format in all cases: binding
Details in all cases: read-out: % Ctrl
TBK1 = target: T1, TBK1 (Homo sapiens, UniProt Q9UHD2)
T1 construct: purchased DiscoveRx KINOMEscan
In short: (§1)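 Competition binding panel of 442 non-mutant kinases: test compound at 5 and 10 μM competed with an active-site-directed ligand for 1 h with shaking. Bound kinase was eluted with 0.5 μM ligand and quantified by qPCR; %Ctrl = (compound − positive control)/(DMSO − positive control) × 100, lower meaning tighter binding.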

ITK = target: T2, ITK (Homo sapiens, UniProt Q08881)
T2 construct: purchased DiscoveRx KINOMEscan
In short: as §1

CAMKK2 = target: T3, CAMKK2 (Homo sapiens, UniProt Q96RR4)
T3 construct: purchased DiscoveRx KINOMEscan
In short: as §1

DYRK2 = target: T4, DYRK2 (Homo sapiens, UniProt Q92630)
T4 construct: purchased DiscoveRx KINOMEscan
In short: as §1

TSSK1B = target: T5, TSSK1B (Homo sapiens, UniProt Q9BXA7)
T5 construct: purchased DiscoveRx KINOMEscan
In short: as §1

GAK = target: T6, GAK (Homo sapiens, UniProt O14976)
T6 construct: purchased DiscoveRx KINOMEscan
In short: as §1

STK33 = target: T7, STK33 (Homo sapiens, UniProt Q9BYT3)
T7 construct: purchased DiscoveRx KINOMEscan
In short: as §1

PIK3CA(H1047Y) = target: T8, PIK3CA(H1047Y) (Homo sapiens, UniProt P42336, H1047Y)
T8 construct: purchased DiscoveRx KINOMEscan

DMPK2 = target: T9, DMPK2 (Homo sapiens, UniProt Q6DT37)
T9 construct: purchased DiscoveRx KINOMEscan
In short: as §1

ICK = target: T10, ICK (Homo sapiens, UniProt Q9UPZ9)
T10 construct: purchased DiscoveRx KINOMEscan
In short: as §1

WEE2 = target: T11, WEE2 (Homo sapiens, UniProt P0C1S8)
T11 construct: purchased DiscoveRx KINOMEscan
In short: as §1

PCTK3 = target: T12, PCTK3 (Homo sapiens, UniProt Q07002)
T12 construct: purchased DiscoveRx KINOMEscan
In short: as §1

TGFBR1 = target: T13, TGFBR1 (Homo sapiens, UniProt P36897)
T13 construct: purchased DiscoveRx KINOMEscan
In short: as §1

ERK2 = target: T14, ERK2 (Homo sapiens, UniProt P28482)
T14 construct: purchased DiscoveRx KINOMEscan
In short: as §1

TAK1 = target: T15, TAK1 (Homo sapiens, UniProt O43318)
T15 construct: purchased DiscoveRx KINOMEscan
In short: as §1

STK39 = target: T16, STK39 (Homo sapiens, UniProt Q9UEW8)
T16 construct: purchased DiscoveRx KINOMEscan
In short: as §1

CDKL2 = target: T17, CDKL2 (Homo sapiens, UniProt Q92772)
T17 construct: purchased DiscoveRx KINOMEscan
In short: as §1

STK36 = target: T18, STK36 (Homo sapiens, UniProt Q9NRP7)
T18 construct: purchased DiscoveRx KINOMEscan
In short: as §1

EGFR(G719S) = target: T19, EGFR(G719S) (Homo sapiens, UniProt P00533, G719S)
T19 construct: purchased DiscoveRx KINOMEscan

[1] = target: T20, RSK1(Kin.Dom.2-C-terminal) (Homo sapiens, UniProt Q15418)
T20 construct: RSK1(Kin.Dom.2-C-terminal); purchased DiscoveRx KINOMEscan
In short: as §1

PDGFRB = target: T21, PDGFRB (Homo sapiens, UniProt P09619)
T21 construct: purchased DiscoveRx KINOMEscan
In short: as §1

PIK3CD = target: T22, PIK3CD (Homo sapiens, UniProt O00329)
T22 construct: purchased DiscoveRx KINOMEscan
In short: as §1

MAP3K2 = target: T23, MAP3K2 (Homo sapiens, UniProt Q9Y2U5)
T23 construct: purchased DiscoveRx KINOMEscan
In short: as §1

CLK3 = target: T24, CLK3 (Homo sapiens, UniProt P49761)
T24 construct: purchased DiscoveRx KINOMEscan
In short: as §1

MELK = target: T25, MELK (Homo sapiens, UniProt Q14680)
T25 construct: purchased DiscoveRx KINOMEscan
In short: as §1

p38-beta = target: T26, p38-beta (Homo sapiens, UniProt Q15759)
T26 construct: purchased DiscoveRx KINOMEscan
In short: as §1

RIOK1 = target: T27, RIOK1 (Homo sapiens, UniProt Q9BRS2)
T27 construct: purchased DiscoveRx KINOMEscan
In short: as §1

MAPKAPK5 = target: T28, MAPKAPK5 (Homo sapiens, UniProt Q8IW41)
T28 construct: purchased DiscoveRx KINOMEscan
In short: as §1

INSR = target: T29, INSR (Homo sapiens, UniProt P06213)
T29 construct: purchased DiscoveRx KINOMEscan
In short: as §1

MYO3B = target: T30, MYO3B (Homo sapiens, UniProt Q8WXR4)
T30 construct: purchased DiscoveRx KINOMEscan
In short: as §1

T24 sequence (P49761 whole entry): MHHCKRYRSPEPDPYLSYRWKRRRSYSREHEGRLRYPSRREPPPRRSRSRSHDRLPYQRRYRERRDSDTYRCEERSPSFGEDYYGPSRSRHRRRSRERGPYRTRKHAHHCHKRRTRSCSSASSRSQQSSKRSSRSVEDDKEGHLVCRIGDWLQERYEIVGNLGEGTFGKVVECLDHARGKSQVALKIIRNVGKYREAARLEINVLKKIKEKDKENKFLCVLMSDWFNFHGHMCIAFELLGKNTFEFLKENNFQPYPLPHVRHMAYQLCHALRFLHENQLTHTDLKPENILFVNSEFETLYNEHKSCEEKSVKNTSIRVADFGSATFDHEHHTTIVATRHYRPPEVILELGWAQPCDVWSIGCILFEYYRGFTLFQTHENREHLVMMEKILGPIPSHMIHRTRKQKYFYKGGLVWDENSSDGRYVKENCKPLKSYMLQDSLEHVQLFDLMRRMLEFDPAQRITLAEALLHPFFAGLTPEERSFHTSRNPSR
T9 sequence (Q6DT37 whole entry): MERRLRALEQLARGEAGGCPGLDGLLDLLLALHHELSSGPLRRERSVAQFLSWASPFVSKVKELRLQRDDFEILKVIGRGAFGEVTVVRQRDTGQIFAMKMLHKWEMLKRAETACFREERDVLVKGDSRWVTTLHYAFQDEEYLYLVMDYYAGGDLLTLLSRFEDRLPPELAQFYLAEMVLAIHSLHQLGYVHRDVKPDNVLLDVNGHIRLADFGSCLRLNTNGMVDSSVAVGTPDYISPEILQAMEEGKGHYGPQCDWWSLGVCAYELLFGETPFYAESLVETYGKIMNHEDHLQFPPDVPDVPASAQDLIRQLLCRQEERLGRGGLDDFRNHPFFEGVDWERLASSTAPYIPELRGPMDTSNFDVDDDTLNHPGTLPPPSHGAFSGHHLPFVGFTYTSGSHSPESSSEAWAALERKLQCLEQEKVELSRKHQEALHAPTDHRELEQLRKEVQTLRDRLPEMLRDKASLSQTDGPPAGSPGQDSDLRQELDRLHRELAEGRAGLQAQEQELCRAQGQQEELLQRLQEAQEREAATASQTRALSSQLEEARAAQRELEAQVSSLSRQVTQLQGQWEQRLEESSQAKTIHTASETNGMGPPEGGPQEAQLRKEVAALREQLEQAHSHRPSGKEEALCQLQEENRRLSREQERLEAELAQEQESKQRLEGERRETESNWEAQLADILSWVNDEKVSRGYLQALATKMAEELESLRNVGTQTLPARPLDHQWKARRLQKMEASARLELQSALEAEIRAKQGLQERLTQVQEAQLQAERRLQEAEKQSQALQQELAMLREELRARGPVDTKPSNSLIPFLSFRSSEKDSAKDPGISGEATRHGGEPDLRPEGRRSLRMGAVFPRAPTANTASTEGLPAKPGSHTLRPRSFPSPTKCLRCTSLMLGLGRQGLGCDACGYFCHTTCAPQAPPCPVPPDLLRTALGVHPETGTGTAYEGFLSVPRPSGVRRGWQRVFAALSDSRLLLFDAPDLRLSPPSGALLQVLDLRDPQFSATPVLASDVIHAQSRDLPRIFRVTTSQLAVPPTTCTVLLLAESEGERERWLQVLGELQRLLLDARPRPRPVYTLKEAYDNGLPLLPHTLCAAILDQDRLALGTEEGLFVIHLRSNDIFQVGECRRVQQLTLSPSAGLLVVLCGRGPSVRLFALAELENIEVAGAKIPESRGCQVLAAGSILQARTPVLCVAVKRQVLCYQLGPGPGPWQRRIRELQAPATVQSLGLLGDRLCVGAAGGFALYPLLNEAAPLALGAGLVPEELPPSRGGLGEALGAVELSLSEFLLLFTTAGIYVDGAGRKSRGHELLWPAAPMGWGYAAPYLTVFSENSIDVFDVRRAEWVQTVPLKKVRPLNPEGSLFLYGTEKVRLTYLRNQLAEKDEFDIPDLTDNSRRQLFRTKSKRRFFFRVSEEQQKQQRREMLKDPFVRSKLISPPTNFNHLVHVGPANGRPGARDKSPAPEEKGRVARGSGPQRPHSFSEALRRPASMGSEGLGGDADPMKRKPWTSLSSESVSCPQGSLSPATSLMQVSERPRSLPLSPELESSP
T13 sequence (P36897 34-503): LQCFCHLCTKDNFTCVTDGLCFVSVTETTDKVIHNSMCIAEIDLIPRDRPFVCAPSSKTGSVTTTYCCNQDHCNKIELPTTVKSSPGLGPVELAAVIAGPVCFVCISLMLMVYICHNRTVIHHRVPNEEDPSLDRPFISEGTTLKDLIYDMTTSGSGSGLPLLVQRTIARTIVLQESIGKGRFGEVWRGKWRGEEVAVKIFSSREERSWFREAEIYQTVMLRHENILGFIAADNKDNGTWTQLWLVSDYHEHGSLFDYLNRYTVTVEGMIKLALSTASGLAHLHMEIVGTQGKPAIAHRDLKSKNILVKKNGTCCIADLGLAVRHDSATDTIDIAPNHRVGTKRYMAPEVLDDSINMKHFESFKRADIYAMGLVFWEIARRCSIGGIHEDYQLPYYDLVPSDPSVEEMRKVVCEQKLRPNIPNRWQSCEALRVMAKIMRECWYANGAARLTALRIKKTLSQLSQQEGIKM
T10 sequence (Q9UPZ9 whole entry): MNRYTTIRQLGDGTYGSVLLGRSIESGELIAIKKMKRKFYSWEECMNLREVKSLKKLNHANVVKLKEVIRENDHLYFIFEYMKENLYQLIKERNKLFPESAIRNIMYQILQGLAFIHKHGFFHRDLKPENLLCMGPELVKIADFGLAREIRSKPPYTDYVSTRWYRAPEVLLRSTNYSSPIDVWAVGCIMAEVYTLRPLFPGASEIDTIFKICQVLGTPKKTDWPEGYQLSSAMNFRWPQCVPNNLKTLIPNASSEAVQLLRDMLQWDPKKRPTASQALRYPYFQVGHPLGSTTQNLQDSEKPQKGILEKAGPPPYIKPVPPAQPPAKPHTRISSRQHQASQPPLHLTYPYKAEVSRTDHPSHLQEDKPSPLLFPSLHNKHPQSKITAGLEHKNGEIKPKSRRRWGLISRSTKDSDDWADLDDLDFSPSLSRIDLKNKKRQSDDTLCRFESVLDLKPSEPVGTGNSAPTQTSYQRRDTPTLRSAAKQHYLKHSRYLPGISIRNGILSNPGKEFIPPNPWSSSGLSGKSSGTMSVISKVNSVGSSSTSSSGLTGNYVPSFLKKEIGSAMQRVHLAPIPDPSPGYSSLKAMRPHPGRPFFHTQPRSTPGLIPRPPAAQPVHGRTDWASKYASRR
T12 sequence (Q07002 whole entry): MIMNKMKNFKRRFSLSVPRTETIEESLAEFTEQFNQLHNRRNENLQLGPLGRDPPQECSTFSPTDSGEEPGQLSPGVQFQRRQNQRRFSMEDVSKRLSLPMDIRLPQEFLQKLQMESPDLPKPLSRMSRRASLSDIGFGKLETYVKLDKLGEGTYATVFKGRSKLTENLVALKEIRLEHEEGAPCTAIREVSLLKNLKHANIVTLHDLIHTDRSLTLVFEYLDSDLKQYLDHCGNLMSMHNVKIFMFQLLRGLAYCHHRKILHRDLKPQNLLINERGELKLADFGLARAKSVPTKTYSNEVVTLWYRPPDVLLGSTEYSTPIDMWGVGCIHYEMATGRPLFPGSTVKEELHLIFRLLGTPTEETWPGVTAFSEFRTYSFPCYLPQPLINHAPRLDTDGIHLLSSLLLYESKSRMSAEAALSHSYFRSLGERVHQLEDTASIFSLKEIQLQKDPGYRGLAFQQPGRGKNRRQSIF
T21 sequence (P09619 33-1106): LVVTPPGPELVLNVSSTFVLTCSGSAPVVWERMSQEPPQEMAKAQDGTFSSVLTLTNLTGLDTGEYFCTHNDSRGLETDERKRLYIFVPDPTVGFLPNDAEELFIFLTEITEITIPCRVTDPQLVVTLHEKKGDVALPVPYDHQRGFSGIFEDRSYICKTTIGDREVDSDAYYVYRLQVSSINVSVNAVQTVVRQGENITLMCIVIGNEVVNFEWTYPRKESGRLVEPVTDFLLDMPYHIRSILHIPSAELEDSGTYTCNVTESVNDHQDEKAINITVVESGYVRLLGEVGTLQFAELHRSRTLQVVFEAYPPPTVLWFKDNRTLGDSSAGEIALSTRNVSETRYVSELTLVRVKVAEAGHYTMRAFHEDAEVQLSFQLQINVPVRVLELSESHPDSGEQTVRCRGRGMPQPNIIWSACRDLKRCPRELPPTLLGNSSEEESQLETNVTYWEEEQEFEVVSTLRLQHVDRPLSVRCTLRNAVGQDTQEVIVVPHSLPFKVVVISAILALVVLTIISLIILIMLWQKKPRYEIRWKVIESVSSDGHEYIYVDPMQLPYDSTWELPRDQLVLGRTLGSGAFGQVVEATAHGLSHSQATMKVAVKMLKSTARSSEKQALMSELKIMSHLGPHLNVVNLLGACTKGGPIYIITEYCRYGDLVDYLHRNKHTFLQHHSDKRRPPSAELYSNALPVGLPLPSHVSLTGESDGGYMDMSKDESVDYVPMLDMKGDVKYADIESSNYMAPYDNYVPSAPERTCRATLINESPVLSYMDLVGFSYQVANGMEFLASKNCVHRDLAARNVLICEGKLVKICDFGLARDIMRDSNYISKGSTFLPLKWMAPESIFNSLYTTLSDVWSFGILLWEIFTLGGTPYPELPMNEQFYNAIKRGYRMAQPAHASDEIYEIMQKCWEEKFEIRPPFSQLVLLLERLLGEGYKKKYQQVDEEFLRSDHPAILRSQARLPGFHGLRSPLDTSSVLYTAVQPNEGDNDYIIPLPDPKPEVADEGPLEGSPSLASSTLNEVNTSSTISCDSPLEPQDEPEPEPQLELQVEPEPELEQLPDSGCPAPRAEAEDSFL
T5 sequence (Q9BXA7 whole entry): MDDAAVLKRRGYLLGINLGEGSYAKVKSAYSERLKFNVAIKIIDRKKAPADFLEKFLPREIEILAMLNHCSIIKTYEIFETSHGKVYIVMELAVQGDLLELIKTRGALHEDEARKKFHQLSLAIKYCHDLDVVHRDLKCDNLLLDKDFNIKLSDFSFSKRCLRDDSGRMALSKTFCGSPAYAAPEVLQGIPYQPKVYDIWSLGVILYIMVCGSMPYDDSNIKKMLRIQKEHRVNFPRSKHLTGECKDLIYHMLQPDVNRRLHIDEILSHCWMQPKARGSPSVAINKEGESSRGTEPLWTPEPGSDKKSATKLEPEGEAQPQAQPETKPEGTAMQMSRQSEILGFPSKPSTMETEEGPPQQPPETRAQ

Cc1ccc(C2=Nc3cccnc3S(=O)(=O)c3ccccc32)cc1 [TBPT, 6-(p-tolyl)benzo[f] pyrido[2,3-b][1,4] thiazepine 11,11-dioxide]
remaining binding at 5 µM (TBK1; 5 μM): 100%
remaining binding at 10 µM (TBK1; 10 μM): 100%
remaining binding at 5 µM (ITK; 5 μM): 100%
remaining binding at 10 µM (ITK; 10 μM): 90%
remaining binding at 5 µM (CAMKK2; 5 μM): 97%
remaining binding at 10 µM (CAMKK2; 10 μM): 83%
remaining binding at 5 µM (DYRK2; 5 μM): 93%
remaining binding at 10 µM (DYRK2; 10 μM): 100%
remaining binding at 5 µM (TSSK1B; 5 μM): 90%
remaining binding at 10 µM (TSSK1B; 10 μM): 100%
remaining binding at 5 µM (GAK; 5 μM): 100%
remaining binding at 10 µM (GAK; 10 μM): 90%
remaining binding at 5 µM (STK33; 5 μM): 99%
remaining binding at 10 µM (STK33; 10 μM): 100%
remaining binding at 5 µM (PIK3CA(H1047Y); 5 μM): 95%
remaining binding at 10 µM (PIK3CA(H1047Y); 10 μM): 100%
remaining binding at 5 µM (DMPK2; 5 μM): 100%
remaining binding at 10 µM (DMPK2; 10 μM): 83%
remaining binding at 5 µM (ICK; 5 μM): 100%
remaining binding at 10 µM (ICK; 10 μM): 100%
remaining binding at 5 µM (WEE2; 5 μM): 100%
remaining binding at 10 µM (WEE2; 10 μM): 100%
remaining binding at 5 µM (PCTK3; 5 μM): 82%
remaining binding at 10 µM (PCTK3; 10 μM): 100%
remaining binding at 5 µM (TGFBR1; 5 μM): 100%
remaining binding at 10 µM (TGFBR1; 10 μM): 85%
remaining binding at 5 µM (ERK2; 5 μM): 76%
remaining binding at 10 µM (ERK2; 10 μM): 92%
remaining binding at 5 µM (TAK1; 5 μM): 87%
remaining binding at 10 µM (TAK1; 10 μM): 93%
remaining binding at 5 µM (STK39; 5 μM): 100%
remaining binding at 10 µM (STK39; 10 μM): 62%
remaining binding at 5 µM (CDKL2; 5 μM): 95%
remaining binding at 10 µM (CDKL2; 10 μM): 100%
remaining binding at 5 µM (STK36; 5 μM): 84%
remaining binding at 10 µM (STK36; 10 μM): 100%
remaining binding at 5 µM (EGFR(G719S); 5 μM): 83%
remaining binding at 10 µM (EGFR(G719S); 10 μM): 94%
remaining binding at 5 µM ([1]; 5 μM): 100%
remaining binding at 10 µM ([1]; 10 μM): 98%
remaining binding at 5 µM (PDGFRB; 5 μM): 68%
remaining binding at 10 µM (PDGFRB; 10 μM): 100%
remaining binding at 5 µM (PIK3CD; 5 μM): 94%
remaining binding at 10 µM (PIK3CD; 10 μM): 100%
remaining binding at 5 µM (MAP3K2; 5 μM): 82%
remaining binding at 10 µM (MAP3K2; 10 μM): 100%
remaining binding at 5 µM (CLK3; 5 μM): 100%
remaining binding at 10 µM (CLK3; 10 μM): 100%
remaining binding at 5 µM (MELK; 5 μM): 100%
remaining binding at 10 µM (MELK; 10 μM): 100%
remaining binding at 5 µM (p38-beta; 5 μM): 100%
remaining binding at 10 µM (p38-beta; 10 μM): 76%
remaining binding at 5 µM (RIOK1; 5 μM): 83%
remaining binding at 10 µM (RIOK1; 10 μM): 76%
remaining binding at 5 µM (MAPKAPK5; 5 μM): 100%
remaining binding at 10 µM (MAPKAPK5; 10 μM): 88%
remaining binding at 5 µM (INSR; 5 μM): 98%
remaining binding at 10 µM (INSR; 10 μM): 84%
remaining binding at 5 µM (MYO3B; 5 μM): 100%
remaining binding at 10 µM (MYO3B; 10 μM): 100%
